The source of these data is ChEMBL document CHEMBL4334438, “Discovery of novel glycogen synthase kinase-3α inhibitors: Structure-based virtual screening, preliminary SAR and biological evaluation for treatment of acute myeloid leukemia” (Eur J Med Chem, 2019).

Activity calls are given as the source filed them. The rule behind the calls is not given here.

In series [1] the target is Dual specificity mitogen-activated protein kinase kinase 7 (Homo sapiens) (UniProt O14733). The series is described as follows: Inhibition of recombinant human MKK7beta (2 to end residues) assessed as residual activity at 1 uM using inactive JNK1a1 as substrate incubated for 40 mins in presence of [gamma-33ATP by scintillation counting based radiometry assay relative to control.
Sequence of Dual specificity mitogen-activated protein kinase kinase 7 (Homo sapiens) (O14733 whole entry): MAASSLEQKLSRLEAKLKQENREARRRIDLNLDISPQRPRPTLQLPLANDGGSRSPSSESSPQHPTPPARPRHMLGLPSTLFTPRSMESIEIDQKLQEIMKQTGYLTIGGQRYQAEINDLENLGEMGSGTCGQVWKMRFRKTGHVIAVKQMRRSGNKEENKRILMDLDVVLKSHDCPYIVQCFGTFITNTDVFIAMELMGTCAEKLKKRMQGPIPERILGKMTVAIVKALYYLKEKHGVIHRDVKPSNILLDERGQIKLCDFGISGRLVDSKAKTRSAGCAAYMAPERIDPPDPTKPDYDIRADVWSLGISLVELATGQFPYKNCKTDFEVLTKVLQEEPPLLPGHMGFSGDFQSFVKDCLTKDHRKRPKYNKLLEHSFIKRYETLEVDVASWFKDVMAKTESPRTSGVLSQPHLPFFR

Series [2] can be described thus: Activation of wnt/beta-catenin signalling pathway in human HL60 cells assessed as stabilization of beta-catenin at 1 to 30 uM after 24 hrs by Western blot analysis. The series is classed as cell-based. (In western blotting, separated proteins are transferred to a membrane and probed.)
For series [3], the system named is HL-60. The experiment in a line: Induction of cell differentiation in human HL60 cells assessed as increase in CD14-FITC positive cells after 6 days by flow cytometry analysis. The series is classed as functional, cell-based. On the technique in general: In flow cytometry, cells or beads pass a laser one at a time.
For series [4], the system named is NB-4. The experiment in a line: Induction of monocytic differentiation in human NB4 cells assessed as increase in CD11c-APC positive cells at 30 uM after 6 days by flow cytometry analysis. The series is classed as functional, cell-based.
The target of series [5] is Casein kinase I isoform epsilon (Homo sapiens) (UniProt P49674). The experiment in a line: Inhibition of recombinant human CK1epsilon assessed as residual activity at 1 uM using KRRRALS(p)VASLPGL as substrate incubated for 120 mins in presence of [gamma-33ATP] by scintillation counting based radiometry assay relative to control.
Sequence of Casein kinase I isoform epsilon (Homo sapiens) (P49674 whole entry, looked up, canonical isoform): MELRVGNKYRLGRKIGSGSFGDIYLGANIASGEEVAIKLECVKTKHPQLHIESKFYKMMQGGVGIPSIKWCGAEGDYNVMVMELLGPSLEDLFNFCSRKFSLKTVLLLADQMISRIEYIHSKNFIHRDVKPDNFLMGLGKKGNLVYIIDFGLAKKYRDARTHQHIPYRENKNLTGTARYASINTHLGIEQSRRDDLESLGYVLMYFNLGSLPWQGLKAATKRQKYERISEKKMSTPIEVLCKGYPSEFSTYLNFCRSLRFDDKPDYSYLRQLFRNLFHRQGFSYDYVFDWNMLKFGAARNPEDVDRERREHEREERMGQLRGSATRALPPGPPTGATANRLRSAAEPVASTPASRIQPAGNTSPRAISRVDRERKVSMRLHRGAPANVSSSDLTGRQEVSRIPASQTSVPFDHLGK
For series [6], the target named is Serine/threonine-protein kinase LATS1 (Homo sapiens) (UniProt O95835). The experiment in a line: Inhibition of human LATS1 assessed as residual activity at 1 uM by radiometric assay relative to control.
Sequence of Serine/threonine-protein kinase LATS1 (Homo sapiens) (O95835 whole entry): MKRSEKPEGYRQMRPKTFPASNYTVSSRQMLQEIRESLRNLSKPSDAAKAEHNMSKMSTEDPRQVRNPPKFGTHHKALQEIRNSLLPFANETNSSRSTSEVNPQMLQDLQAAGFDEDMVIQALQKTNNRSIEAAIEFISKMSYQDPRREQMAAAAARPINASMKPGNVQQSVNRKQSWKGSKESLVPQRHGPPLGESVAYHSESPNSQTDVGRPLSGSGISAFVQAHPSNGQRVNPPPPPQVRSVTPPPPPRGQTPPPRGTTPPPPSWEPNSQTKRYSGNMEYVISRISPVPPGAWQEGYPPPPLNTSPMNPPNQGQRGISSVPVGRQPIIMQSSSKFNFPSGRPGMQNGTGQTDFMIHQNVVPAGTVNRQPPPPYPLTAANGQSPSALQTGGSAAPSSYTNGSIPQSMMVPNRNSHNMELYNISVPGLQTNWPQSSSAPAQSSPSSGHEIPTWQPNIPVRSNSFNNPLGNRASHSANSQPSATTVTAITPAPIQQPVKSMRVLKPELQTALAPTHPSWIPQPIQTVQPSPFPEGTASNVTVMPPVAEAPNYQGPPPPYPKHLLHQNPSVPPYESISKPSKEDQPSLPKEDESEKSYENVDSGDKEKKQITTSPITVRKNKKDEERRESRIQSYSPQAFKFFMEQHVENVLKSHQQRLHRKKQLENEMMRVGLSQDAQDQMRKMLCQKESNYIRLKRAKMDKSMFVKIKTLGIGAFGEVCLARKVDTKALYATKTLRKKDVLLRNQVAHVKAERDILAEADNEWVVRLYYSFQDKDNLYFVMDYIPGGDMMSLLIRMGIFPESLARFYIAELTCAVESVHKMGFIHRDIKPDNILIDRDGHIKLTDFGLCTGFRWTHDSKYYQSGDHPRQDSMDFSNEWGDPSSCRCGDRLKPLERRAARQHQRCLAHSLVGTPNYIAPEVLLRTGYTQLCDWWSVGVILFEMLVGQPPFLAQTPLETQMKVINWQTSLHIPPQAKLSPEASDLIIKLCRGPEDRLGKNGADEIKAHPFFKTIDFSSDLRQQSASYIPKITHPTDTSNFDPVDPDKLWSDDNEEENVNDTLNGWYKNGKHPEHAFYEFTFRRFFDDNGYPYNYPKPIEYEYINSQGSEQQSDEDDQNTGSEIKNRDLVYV
Series [7] concerns the target Citron Rho-interacting kinase (Homo sapiens) (UniProt O14578). The experiment in a line: Inhibition of recombinant human CRIK assessed as residual activity at 1 uM KKLRRTLSVA as substrate incubated 120 mins by scintillation counting method relative to control.
Series [8] concerns the target Casein kinase I isoform alpha (Homo sapiens) (UniProt P48729). The experiment in a line: Inhibition of recombinant human CK1alpha expressed in Escherichia coli assessed as residual activity at 1 uMu sing CK1 peptide as substrate preincubated for 15 mins followed by substrate addition and measured after 30 mins in presence of [gamma-33ATP] by scintillation counting method relative to control. The settings on record: 1 uM.

The target in series [9] is Serine/threonine-protein kinase OSR1 (Homo sapiens) (UniProt O95747). The experiment in a line: Inhibition of recombinant human OSR1 assessed as residual activity at 1 uM relative to control.
Sequence of Serine/threonine-protein kinase OSR1 (Homo sapiens) (O95747 2-527 limits assumed): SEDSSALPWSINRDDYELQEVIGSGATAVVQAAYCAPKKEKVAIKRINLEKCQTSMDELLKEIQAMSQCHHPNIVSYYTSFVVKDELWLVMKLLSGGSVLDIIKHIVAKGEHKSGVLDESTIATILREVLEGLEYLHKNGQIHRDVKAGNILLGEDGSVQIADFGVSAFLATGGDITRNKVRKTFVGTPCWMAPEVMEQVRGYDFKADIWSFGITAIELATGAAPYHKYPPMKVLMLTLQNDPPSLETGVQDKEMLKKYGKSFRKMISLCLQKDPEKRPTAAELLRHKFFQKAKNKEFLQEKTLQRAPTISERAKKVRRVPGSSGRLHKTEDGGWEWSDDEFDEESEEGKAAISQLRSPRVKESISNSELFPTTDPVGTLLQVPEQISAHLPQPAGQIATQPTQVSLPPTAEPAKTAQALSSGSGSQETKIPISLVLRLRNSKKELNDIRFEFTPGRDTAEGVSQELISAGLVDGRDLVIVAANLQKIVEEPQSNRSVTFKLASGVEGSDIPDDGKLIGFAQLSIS
Series [10] addresses CDK17/Cyclin-Y (Homo sapiens) (UniProt Q00537+Q8ND76). The experiment in a line: Inhibition of recombinant full length human CDK17/cyclinY assessed as residual activity at 1 uM using PKSPKARKKL as substrate incubated for 120 mins in presence of [gamma-33ATP] by scintillation counting based radiometry assay relative to control. The series is classed as protein-complex assay.

The target in series [11] is Serine/threonine-protein kinase MRCK gamma (Homo sapiens) (UniProt Q6DT37). The experiment in a line: Inhibition of recombinant human MRCKgamma assessed as residual activity at 1 uM using KKRNRTLTV as substrate measured after 40 mins in presence of [gamma33P]ATP by scintillation counting method relative to control.
For series [12], the system named is HL-60. The series is described as follows: Induction of monocytic differentiation in human HL60 monocytic assessed as increase in CD11c-APC positive cells at 30 uM after 6 days by flow cytometry analysis. The series is classed as functional, cell-based.
Series [13] deals with AP2-associated protein kinase 1 (Homo sapiens) (UniProt Q2M2I8). The experiment in a line: Inhibition of human AAK1 assessed as residual activity at 1 uM using peptide as substrate incubated for 120 mins in presence of [gamma-33ATP] by scintillation counting based radiometry assay relative to control.
Sequence of AP2-associated protein kinase 1 (Homo sapiens) (Q2M2I8 whole entry, looked up): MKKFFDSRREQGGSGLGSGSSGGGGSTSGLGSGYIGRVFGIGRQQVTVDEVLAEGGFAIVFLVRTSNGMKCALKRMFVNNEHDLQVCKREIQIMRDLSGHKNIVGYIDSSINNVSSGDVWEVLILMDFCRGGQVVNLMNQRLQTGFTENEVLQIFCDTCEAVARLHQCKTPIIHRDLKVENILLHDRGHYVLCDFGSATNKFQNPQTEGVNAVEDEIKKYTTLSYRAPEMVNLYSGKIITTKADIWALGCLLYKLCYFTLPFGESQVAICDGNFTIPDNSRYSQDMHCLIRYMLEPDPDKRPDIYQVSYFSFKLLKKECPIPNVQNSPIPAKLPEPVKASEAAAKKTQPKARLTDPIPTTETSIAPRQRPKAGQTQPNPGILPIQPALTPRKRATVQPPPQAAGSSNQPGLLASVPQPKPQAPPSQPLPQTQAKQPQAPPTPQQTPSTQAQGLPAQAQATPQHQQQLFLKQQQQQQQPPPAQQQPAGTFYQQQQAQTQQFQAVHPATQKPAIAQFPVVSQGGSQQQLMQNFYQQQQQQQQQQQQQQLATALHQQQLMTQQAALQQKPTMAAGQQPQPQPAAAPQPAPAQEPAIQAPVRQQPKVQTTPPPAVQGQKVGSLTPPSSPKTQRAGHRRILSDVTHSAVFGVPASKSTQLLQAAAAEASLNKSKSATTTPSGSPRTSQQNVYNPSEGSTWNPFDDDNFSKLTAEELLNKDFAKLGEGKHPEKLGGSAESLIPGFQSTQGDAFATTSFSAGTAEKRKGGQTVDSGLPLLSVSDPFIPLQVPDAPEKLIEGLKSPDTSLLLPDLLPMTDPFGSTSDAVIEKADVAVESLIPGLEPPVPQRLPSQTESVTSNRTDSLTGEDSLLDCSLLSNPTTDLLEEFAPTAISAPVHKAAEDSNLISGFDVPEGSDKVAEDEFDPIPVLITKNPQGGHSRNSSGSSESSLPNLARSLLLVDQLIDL
The test system of series [14] is NB-4. The series is described as follows: Induction of cell death in human NB4 cells at 10 to 30 uM after 6 days by trypan blue assay. The series is classed as cell-based. The settings on record: nb-4, 144 h.
Series [15] concerns HL-60. The series is described as follows: Induction of cell differentiation in human HL60 cells assessed as increase in CD11c-APC positive cells after 6 days by flow cytometry analysis. The series is classed as functional, cell-based.
Series [16] has as its target Serine/threonine-protein kinase WNK4 (Homo sapiens) (UniProt Q96J92). The experiment in a line: Inhibition of human WNK4 assessed as residual activity at 1 uM using myelin basic protein as substrate measured after 120 mins in presence of [gamma33P]ATP by scintillation counting method relative to control.

Sequence of CDK17/Cyclin-Y (Homo sapiens) (Q00537 whole entry): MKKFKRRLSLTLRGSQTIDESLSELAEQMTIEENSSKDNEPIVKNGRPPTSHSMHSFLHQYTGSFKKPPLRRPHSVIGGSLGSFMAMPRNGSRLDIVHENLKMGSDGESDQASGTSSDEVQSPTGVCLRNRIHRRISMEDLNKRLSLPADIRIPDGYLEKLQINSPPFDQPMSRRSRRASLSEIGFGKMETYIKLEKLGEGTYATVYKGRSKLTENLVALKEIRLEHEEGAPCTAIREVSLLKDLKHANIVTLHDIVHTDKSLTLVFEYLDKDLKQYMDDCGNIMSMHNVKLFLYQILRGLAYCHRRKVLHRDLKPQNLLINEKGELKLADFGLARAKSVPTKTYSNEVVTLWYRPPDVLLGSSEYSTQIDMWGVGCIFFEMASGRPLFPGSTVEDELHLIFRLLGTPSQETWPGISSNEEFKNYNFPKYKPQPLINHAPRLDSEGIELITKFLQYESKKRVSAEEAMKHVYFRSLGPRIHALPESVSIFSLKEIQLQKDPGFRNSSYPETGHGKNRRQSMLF
Sequence of CDK17/Cyclin-Y (Homo sapiens) (Q8ND76 2-341 partner limits assumed): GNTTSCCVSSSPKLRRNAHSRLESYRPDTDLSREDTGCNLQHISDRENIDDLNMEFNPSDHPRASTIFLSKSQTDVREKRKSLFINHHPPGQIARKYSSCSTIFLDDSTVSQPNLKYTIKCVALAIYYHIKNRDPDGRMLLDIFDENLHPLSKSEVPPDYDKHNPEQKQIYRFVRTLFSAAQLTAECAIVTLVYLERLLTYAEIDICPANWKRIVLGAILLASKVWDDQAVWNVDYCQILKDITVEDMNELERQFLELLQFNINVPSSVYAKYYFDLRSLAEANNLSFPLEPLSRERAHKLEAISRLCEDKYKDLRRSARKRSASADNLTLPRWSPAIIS
Sequence of Casein kinase I isoform alpha (Homo sapiens) (P48729 2-337 limits assumed): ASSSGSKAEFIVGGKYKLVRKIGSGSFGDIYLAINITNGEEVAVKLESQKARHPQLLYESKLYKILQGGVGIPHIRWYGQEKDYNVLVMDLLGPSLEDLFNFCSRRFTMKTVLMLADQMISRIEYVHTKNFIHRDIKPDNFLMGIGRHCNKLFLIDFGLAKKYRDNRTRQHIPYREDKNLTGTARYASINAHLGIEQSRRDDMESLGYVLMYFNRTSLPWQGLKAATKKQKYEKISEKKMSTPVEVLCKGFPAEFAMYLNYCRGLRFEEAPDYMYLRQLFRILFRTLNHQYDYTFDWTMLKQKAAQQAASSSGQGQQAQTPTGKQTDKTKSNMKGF

For `N=C1NC(=O)/C(=C\c2ccc(-c3cccc([N+](=O)[O-])c3)o2)S1`, the Activity in series [1] is 93%.
As to `C=CCOC(=O)c1cc(-c2ccc(/C=C3/NC(=S)NC3=O)o2)ccc1Cl`, the Activity entry in series [2] was “Not Active”; in the series on HL-60 [3] it was “Dose-dependent effect”; in series [5], 91%; in series [6], 114%; in series [7] it was 95%; in series [8] it was 96%. Also, the Activity is 118% in series [9]; 72% in [10]; 110% in series [11]; 101% in series [13]; “Non-Toxic” in the series on NB-4 [14]; “Dose-dependent effect” in the series with HL-60 [15]. For the same compound, in [16], the Activity was found to be 93%. For the same compound, the result in the series on NB-4 [4] and with HL-60 [12] was Active.
